62 molecules from US9556159B2, “Renin inhibitor” (MITSUBISHI TANABE PHARMA CORPORATION, priority 2012, dated 2017) can be followed below.

The first experiment has as its target T1, Recombinant human renin (Homo sapiens, UniProt P00797).
T1 sequence (P00797 67-406): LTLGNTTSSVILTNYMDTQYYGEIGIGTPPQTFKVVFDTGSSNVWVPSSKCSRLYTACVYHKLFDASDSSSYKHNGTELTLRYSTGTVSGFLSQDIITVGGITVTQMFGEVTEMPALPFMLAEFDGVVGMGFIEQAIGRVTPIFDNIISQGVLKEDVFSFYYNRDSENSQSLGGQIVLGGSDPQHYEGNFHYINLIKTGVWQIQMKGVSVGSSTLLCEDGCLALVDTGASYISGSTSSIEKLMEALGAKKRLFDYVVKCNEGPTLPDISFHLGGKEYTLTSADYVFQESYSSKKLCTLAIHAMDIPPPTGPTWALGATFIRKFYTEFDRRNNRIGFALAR
Nature of the experiment: Inhibitory activity against human renin (fluorogenic peptide substrate). It counts as biochemical. To be noted: 37° C. for 1 hour, read-out: IC50.
For orientation: IC50 means the point on the concentration scale where inhibition reaches its midpoint. Turning to `CC(=O)NCCn1nc(C)c2ccc([C@@H](C)N(C(=O)[C@H]3CNCCO3)C3CC3)cc21` [Example 8], the IC50 was 4.4 nM.
Regarding `COC(=O)NCCCn1nc([C@@H](C)N(C(=O)[C@H]2CNCCO2)C2CC2)c2ccc(C3CC3)nc21` [Example 82], the concentration for half-maximal inhibition (IC50) came to 0.5 nM.
In the case of `COC(=O)NCCCc1cc([C@@H](C)N(C(=O)[C@H]2CNCCO2)C2CC2)cc(C)n1` [Example 97], the half-inhibitory concentration (IC50) was 8.2 nM.
Still for that read-out and setting: to `CCc1cc([C@@H](C)N(C(=O)[C@H]2CNCCO2)C2CC2)cc(CCCCOC)n1` [Example 112] belongs 2 nM; to `COC(=O)NCCCn1cc([C@@H](C)N(C(=O)[C@H]2CNCCO2)C2CC2)c2ncccc21` [Example 43], 0.6 nM; to `COCc1ccc([C@@H](C)N(C(=O)[C@H]2CNCCO2)C2CC2)cc1OCCNC(=O)OC` [Example 95], 7.2 nM.
Consider `COCCCCn1cc([C@@H](C)N(C(=O)[C@H]2CNCCO2)C2CC2)c2nc(C)ccc21` [Example 56], for which the IC50 amounted to 4.2 nM.
For `COCCCCn1cc([C@@H](C)N(C(=O)[C@H]2CNCCO2)C2CC2)c2ncc(OC)cc21` [Example 40], the IC50 was determined as 0.7 nM.
With `COc1ccc([C@@H](C)N(C(=O)[C@H]2CNCCO2)C2CC2)cc1CCCNC(C)=O` [Example 27], the IC50 amounted to 8.3 nM.
Regarding `CNC(=O)NCCCn1nc([C@@H](C)N(C(=O)[C@H]2CNCCO2)C2CC2)c2ccc(C)cc21` [Example 28], the IC50 was 7.1 nM.
Same read-out and setting: to `COC(=O)NCCCn1nc([C@@H](C)N(C(=O)[C@H]2CNCCO2)C2CC2)c2cccc(F)c21` [Example 76] belongs 0.6 nM; to `COc1ccc([C@@H](C)N(C(=O)[C@H]2CNCCO2)C2CC2)cc1CCCNC(=O)C(F)(F)F` [Example 67], 8.9 nM; to `COCCCCc1cc([C@@H](C)N(C(=O)[C@H]2CNCCO2)C2CC2)cc(OC)n1` [Example 78], 0.9 nM.

The same experiment, now with this note: 50% inhibitory concentration (IC50) against human renin, 37° C. for 1 hour.
Turning to `COC(=O)NCCCc1cc([C@@H](C)N(C(=O)[C@H]2CNCCO2)C2CC2)cnc1O[C@H]1CCOC1` [Example 443], the IC50 is 2 nM.
As for `COC(=O)NCCCc1cc([C@@H](C)N(C(=O)[C@H]2CNCCO2)C2CC2)cnc1-c1ccccc1` [Example 128], the IC50 amounted to 1.4 nM.
Same read-out and setting: to `COC(=O)NCCCc1csc([C@@H](C)N(C(=O)[C@H]2CNCCO2)C2CC2)c1` [Example 224] belongs 3.1 nM; to `COC(=O)NCCCn1nc([C@@H](C)N(C(=O)[C@H]2CNC[C@@H](C)O2)C2CC2)cc1C(C)(C)c1ccccc1` [Example 390], 3.5 nM.
Turning to `CCCCCn1cc([C@@H](C)N(C(=O)[C@H]2CNCCO2)C2CC2)nc1-c1ccccc1` [Example 200], the half-maximal inhibitory concentration (IC50) stood at 4.5 nM.
With `COC(=O)NCCCc1nc([C@@H](C)N(C(=O)[C@H]2CNCCO2)C2CC2)nn1-c1cccc(Cl)c1` [Example 365], the half-maximal inhibitory concentration (IC50) was 3.5 nM.
Turning to `COC(=O)NCCCc1cc([C@@H](C)N(C(=O)[C@H]2CNC[C@@H](C(F)(F)F)O2)C2CC2)nn1-c1ccccc1` [Example 367], the half-inhibitory concentration (IC50) stood at 1.7 nM.
On to `COC(=O)NCc1cc([C@@H](C)N(C(=O)[C@H]2CNCCO2)C2CC2)nc2ccccc12` [Example 154], for which the IC50 was 2.4 nM.
The same measure, in the same setting: to `CCc1cn(CCCOC)c2cc([C@@H](C)N(C(=O)[C@H]3CNCCO3)C3CC3)nc(Cl)c12` [Example 130] belongs 1.5 nM; to `COC[C@@H]1CNC[C@H](C(=O)N(C2CC2)[C@H](C)c2cc(CCCNC(=O)OC)n(-c3ccccc3)n2)O1` [Example 285], 0.6 nM.
As to `CCOC[C@@H]1CNC[C@H](C(=O)N(C2CC2)[C@@H](C)c2cc(CCCNC(=O)OC)nc(OC)c2)O1` [Example 311], the IC50 worked out at 0.4 nM.
For `C[C@H](c1cn(Cc2cccc(F)c2)c(-c2ccccc2)n1)N(C(=O)[C@H]1CNCCO1)C1CC1` [Example 214], the IC50 turned out to be 2.8 nM.
With `CCc1cc([C@@H](C)N(C(=O)[C@H]2CNCCO2)C2CC2)nc2c1cnn2CCCOC` [Example 379], the IC50 was 8.9 nM.
For the molecule `COC(=O)NC/C=C/c1cc([C@@H](C)N(C(=O)[C@H]2CNC[C@@H](C)O2)C2CC2)nn1-c1cccc(Cl)c1` [Example 346], the 50% inhibitory concentration (IC50) was 1.3 nM.
For the molecule `COC(=O)NCCCc1nc([C@@H](C)N(C(=O)[C@H]2CNCCO2)C2CC2)sc1-c1ccnc(C)c1` [Example 407], the 50% inhibitory concentration (IC50) was 1.7 nM.
Turning to `COC(=O)NCCCc1cc([C@@H](C)N(C(=O)[C@H]2CNCCO2)C2CC2)nc2ccc(C#N)cc12` [Example 146], the half-inhibitory concentration (IC50) is 1 nM.
`COC(=O)NCCCc1cc([C@@H](C)N(C(=O)[C@H]2CNCCO2)C2CC2)sc1C#CC(C)(C)O` [Example 423]: the IC50 is 1 nM.
As to `COC(=O)NCCCc1cc([C@@H](C)N(C(=O)[C@H]2CNCCO2)C2CC2)cc2cccnc12` [Example 145], the half-inhibitory concentration (IC50) worked out at 0.5 nM.
With `COC(=O)NCCCc1cc([C@@H](C)N(C(=O)[C@H]2CNCCO2)C2CC2)nc2c1CCCC2` [Example 122], the IC50 worked out at 0.2 nM.
For `COC(=O)NCCCc1cc([C@@H](C)N(C(=O)[C@H]2CNCCO2)C2CC2)sc1C(C)=O` [Example 441], the IC50 was 0.8 nM.
As for `COC(=O)NCCCn1nc([C@@H](C)N(C(=O)[C@H]2CNCCO2)C2CC2)cc1-c1ccc(OC)nc1` [Example 174], the IC50 amounted to 0.4 nM.
As to `COC(=O)NCCCc1cc([C@@H](C)N(C(=O)[C@H]2CNC[C@@H](C)O2)C2CC2)nn1-c1ccc(F)cc1` [Example 351], the IC50 amounted to 0.4 nM.
Consider `COC(=O)NCCCn1nc([C@@H](C)N(C(=O)[C@H]2CNCCO2)C2CC2)cc1C(C)(C)c1ccccc1` [Example 387], for which the concentration for half-maximal inhibition (IC50) is 4.4 nM.
Regarding `COC(=O)NCCCn1cc([C@@H](C)N(C(=O)[C@H]2CNCCO2)C2CC2)nc1-c1ccc(C(F)(F)F)cc1` [Example 164], the IC50 is 0.6 nM.
For the molecule `C=C(C)c1sc(C(C)N(C(=O)[C@H]2CNCCO2)C2CC2)cc1CCCNC(=O)OC` (some centres unmarked) [Example 411], the half-inhibitory concentration (IC50) amounted to 2.2 nM.
As for `COC(=O)NCCCc1cc([C@H](C)N(C(=O)[C@H]2CNCCO2)C2CC2)cnc1C1CCOCC1` [Example 317], the half-inhibitory concentration (IC50) amounted to 0.6 nM.
Consider `COC(=O)NCCCc1cc([C@@H](C)N(C(=O)[C@H]2CNC[C@@H](C)O2)C2CC2)nn1-c1ccc(C(F)(F)F)cc1` [Example 354], for which the IC50 stood at 1.4 nM.
Same read-out and setting: in the case of `COC(=O)NCCCc1cc([C@@H](C)N(C(=O)[C@H]2CNCCO2)C2CC2)sc1-c1cnn(C)c1` [Example 240] it was 0.2 nM; in that of `COC(=O)NCCCc1cc([C@@H](C)N(C(=O)[C@H]2CNCCO2)C2CC2)sc1-c1ncccc1C` [Example 236], 0.2 nM.
Still for that read-out and setting: in the case of `CCc1cc([C@@H](C)N(C(=O)[C@H]2CNCCO2)C2CC2)nc2ccccc12` [Example 212] it was 4.6 nM.
Consider `COCCCCc1cc([C@@H](C)N(C(=O)[C@H]2CNCCO2)C2CC2)nn1-c1ccccc1` [Example 232], for which the IC50 was 0.6 nM.
As for `COC(=O)NCCCc1cc([C@@H](C)N(C(=O)[C@H]2CNCCO2)C2CC2)cc2ncccc12` [Example 149], the IC50 came out at 0.8 nM.
As to `COC(=O)NCCCn1cc([C@@H](C)N(C(=O)[C@H]2CNCCO2)C2CC2)nc1-c1ccccc1C` [Example 179], the IC50 is 0.3 nM.
As to `COC(=O)NCCCc1cc([C@@H](C)N(C(=O)[C@H]2CN[C@@H](C)CO2)C2CC2)nn1-c1ccc(F)cc1` [Example 371], the 50% inhibitory concentration (IC50) was determined as 1 nM.
Regarding `COC(=O)NCCCc1cc([C@@H](C)N(C(=O)[C@H]2CNCCO2)C2CC2)sc1-c1cc(C(F)(F)F)ccc1C(=O)OC` [Example 262], the IC50 is 3.9 nM.
Same read-out and setting: in the case of `COC(=O)NCCCc1nc([C@@H](C)N(C(=O)[C@H]2CNCCO2)C2CC2)cn1-c1ccccc1` [Example 182] it was 0.7 nM; in that of `CCc1nc([C@@H](C)N(C(=O)[C@H]2CNC[C@@H](COC)O2)C2CC2)cc2c1ccn2CCCOC` [Example 196], 0.7 nM.
Same read-out and setting: to `COC(=O)NCCCn1nc([C@@H](C)N(C(=O)[C@H]2CNCCO2)C2CC2)cc1-c1cccc(F)c1` [Example 172] belongs 0.4 nM; to `COC(=O)NCCCc1cc([C@@H](C)N(C(=O)[C@H]2CNCCO2)C2CC2)sc1-c1cccc(F)c1O` [Example 274], 0.5 nM.
Turning to `COC(=O)NCCCn1cc([C@@H](C)N(C(=O)[C@H]2CNC[C@@H](C(F)(F)F)O2)C2CC2)nc1-c1ccccc1` [Example 203], the IC50 was determined as 0.5 nM.
Consider `COC(=O)NCCCc1cc([C@@H](C)N(C(=O)[C@H]2CNCCO2)C2CC2)nn1C1CCCCC1` [Example 210], for which the concentration for half-maximal inhibition (IC50) worked out at 0.2 nM.
On to `COC(=O)NCCCc1cc([C@@H](C)N(C(=O)[C@H]2CNCCO2)C2CC2)nc2ccc(OC)cc12` [Example 141], for which the half-inhibitory concentration (IC50) was 0.5 nM.
As to `COC(=O)NCCCn1nc([C@@H](C)N(C(=O)[C@H]2CNCCO2)C2CC2)cc1C(C)C` [Example 188], the IC50 is 0.5 nM.
As for `COC(=O)NCCCc1cc([C@@H](C)N(C(=O)[C@H]2CNCCO2)C2CC2)cc(C(F)(F)F)n1` [Example 325], the IC50 was determined as 0.7 nM.
As to `COC(=O)NCCCc1cc([C@@H](C)N(C(=O)[C@H]2CNCCO2)C2CC2)sc1-c1ccccc1CNS(=O)(=O)C(F)(F)F` [Example 284], the concentration for half-maximal inhibition (IC50) came to 1.3 nM.
Consider `COC(=O)NCCCc1cc([C@@H](C)N(C(=O)[C@H]2CNCCO2)C2CC2)nc2ccc(C)cc12` [Example 144], for which the concentration for half-maximal inhibition (IC50) turned out to be 0.7 nM.
For the molecule `COC(=O)NCCCn1cc([C@H](C)N(C(=O)[C@H]2CN[C@@H](C)CO2)C2CC2)nc1C1CCCCC1` [Example 335], the IC50 worked out at 0.9 nM.
As to `COC(=O)NCCCc1sc([C@H](C)N(C(=O)[C@H]2CNCCO2)C2CC2)cc1-c1cnc(N)nc1` [Example 431], the IC50 stood at 3.8 nM.
As to `COC[C@@H]1CNC[C@H](C(=O)N(C2CC2)[C@H](C)c2cc(CCCNC(=O)OC)nc(C(F)(F)F)c2)O1` [Example 324], the half-inhibitory concentration (IC50) stood at 0.6 nM.
